Results from PMC7504735, “Enhanced Antigiardial Effect of Omeprazole Analog Benzimidazole Compounds” (Molecules, 2020).

Key:
[1] = target: T1, triosephosphate isomerase (TPI) (Giardia intestinalis, UniProt P36186); experiment: Second-order inactivation constant (k2) of TPI; assay type: biochemical, Giardia lamblia; conditions: read-out: Second-order inactivation constant k2
T1 construct: His-tag (TEV-cleavable) (cleaved yes); made in house
Method: Enzyme activity of TPI was determined spectrophotometrically as described by monitoring the conversion of glyceraldehyde-3-phosphate (GAP) to dihydroxyacetone phosphate (DHAP). Briefly, the conversion of GAP to DHAP using a coupling system with enzyme α-glycerol-3-phosphate dehydrogenase (α-GDH) was determinate by measuring NADH oxidation at 340 nm, at 25 °C. The standard reaction mixture contained 1 mM GAP, 0.2 mM NADH, and 0.9 units/mL of α-GDH in TE buffer (100 mM triethanolamine, 10 mM EDTA, pH 7.4). The reaction was initiated by adding 5 ng/mL of TPI to the reaction mixture.
To determine the inactivation of the TPI enzyme from G. lamblia, we performed inactivation assays of the enzyme in the presence of the synthesized compounds. The compounds’ stock solutions were freshly prepared using 100% dimethyl sulfoxide (DMSO) as the solvent at 25 mM. The inactivation assays were performed by incubating 0.2 mg/mL of the TPI enzyme for 2 h at 37 °C in TE buffer with increasing concentrations of the compounds (0 to 500 μM). […] After the incubation period, the enzymatic activity was measured by withdrawing an aliquot of each experimental condition, as described above. The results were expressed in terms of the percentage of activity versus the compound’s concentration.
The second-order rate constants of inactivation were calculated by obtaining the pseudo-first-order rate constant (k1) values at each fixed concentration by fitting them to an exponential decay curve. Then, the k1 values were replotted against the concentrations of each compound; the second-order rate constant value of inactivation was obtained from the slope of these plots.

[2] = In vitro cytotoxicity, XTT assay, HT29; assay type: cell-based, human; conditions: human, HT-29 cells; for CC50 at 48 h: XTT; for viability at 48 h, 500 µM: read-out: Viability of HT-29 cells (lowered to)
Method: (§1) The cytotoxicity of compounds was investigated on human cell lines Caco-2 (ATCC HTB-37) and HT-29 (ATCC HHTB-38), using a Cell Proliferation Kit II (XTT; St Louis, MO, USA) according to the manufacturer’s instructions. A cell suspension of 10^5 cells/mL was prepared in Dulbecco’s modified Eagle’s (DMEM); medium supplemented with 10% inactivated fetal bovine serum and 1% Penicillin/streptomycin (5000 U/mL), from confluent cultures, and […] portions of the suspension were added to the wells of 96-well plates. […] Solutions of the compound were prepared and sterilized as described in Section 3.4.1 of Materials and Methods. Then, 150 μL of two-fold serial dilutions of each of the compounds, starting at a concentration of 500 µM, in a culture medium at a concentration of 0.3% DMSO, were prepared in the plates. […] Each compound was assayed in triplicate via three independent experiments.

HT29 cells = experiment: In vitro cytotoxicity, XTT assay, HT29; assay type: cell-based, human; conditions: for Selectivity index (SI), CC50 HT29 / IC50 trophozoites: ratio of CC50/IC50 between mammal cells and trophozoites
Method: as §1

[3] = target: T1, triosephosphate isomerase (TPI); experiment: Intrinsic fluorescence of TPI; conditions: for Decrease of maximum intrinsic fluorescence intensity of TPI: compared to the TPI enzyme free of compounds; for Maximum intrinsic fluorescence intensity of TPI: compound at IC50 concentration, TPI without inhibitors 161 a.u. at 330 nm
Method: Changes in tertiary structure were analyzed following the intrinsic and extrinsic fluorescence of the TPI enzyme in a Perkin-Elmer LS-55 spectrofluorometer (Perkin-Elmer, Wellesley, MA, USA). The TPI protein was adjusted at 0.1 mg/mL in 50 mM phosphate buffer (buffer P), pH 7.4n, and incubated with the four synthesized compounds by 2 h at 37 °C. After the TPI protein was incubated with the synthesized compounds, the samples were excited at 280 nm and we recorded the emission spectra from 300 to 500 nm with a scan speed of 150 nm/min and using excitation and emission slits of 5 and 4 nm, respectively. Furthermore, we determined the extrinsic fluorescence of the TPI enzyme in the presence of the four compounds by 8-anilinonaphthalene-1-sulfonic acid (ANS) assay to monitor changes in the hydrophobic regions of the protein. The protein was incubated in the same conditions as the intrinsic fluorescence assay. Then, we recorded the fluorescence spectra from 400 to 600 nm in the presence of 25 mM of ANS dissolved in methanol at 25 °C with a scanning rate of 150 nm/min. The samples were excited to 395 nm using slits of excitation and emission of 10 nm, respectively. The final spectrum was the average of five scans. Later, each spectrum was subtracted from the spectra of the blank (buffer P solution containing each of the compounds plus ANS).

in vitro = assay type: cell-based; conditions: human, Caco-2; for CC50 at 48 h: XTT; for selectivity ratio at 48 h: ratio of CC50/IC50 between mammal cells and trophozoites, read-out: Selectivity index (SI), CC50 Caco-2 / IC50 trophozoites; for viability at 48 h, 500 µM: read-out: Viability of Caco-2 cells (lowered to)
Method: as §1

Caco-2 cells = experiment: in vitro; assay type: cell-based
Method: as §1

[4] = target: T1, triosephosphate isomerase (TPI); experiment: Thermal stability of TPI by circular dichroism at 222 nm; conditions: for Tm of TPI enzyme incubated with compound: compound at its IC50 concentration, 2 h at 37 °C, TPI free of treatment 60.6 °C
Method: All spectroscopic assays were carried out at a protein concentration of 0.2 mg/mL. Changes in the secondary structure of proteins were monitored by circular dichroism (CD) in a Jasco-810 spectropolarimeter containing a thermostated Peltier-controlled cell holder. For CD experiments, the enzyme was suspended in 50 mM phosphate buffer (buffer P), pH 7.4, and incubated with the four synthesized compounds by 2 h at 37 °C. Spectral scans from 190 to 280 nm at 0.1 nm intervals were performed at 25 °C using a quartz cell with 0.1 cm path length. All CD data were reported as molar ellipticity. In addition, the thermostability of modified TPI enzyme in the absence or presence of each of the synthesized compounds was evaluated, recording the loss of CD signal at 222 nm during a temperature scan ranging from 25 to 75 °C and an increase of 1 °C/2.5 min. The unfolded fraction of enzyme and melting temperature (Tm) was determined as reported before. The experiments were performed in triplicate.

[5] = 500 µM (highest concentration tested)

T1 sequence (P36186 whole entry): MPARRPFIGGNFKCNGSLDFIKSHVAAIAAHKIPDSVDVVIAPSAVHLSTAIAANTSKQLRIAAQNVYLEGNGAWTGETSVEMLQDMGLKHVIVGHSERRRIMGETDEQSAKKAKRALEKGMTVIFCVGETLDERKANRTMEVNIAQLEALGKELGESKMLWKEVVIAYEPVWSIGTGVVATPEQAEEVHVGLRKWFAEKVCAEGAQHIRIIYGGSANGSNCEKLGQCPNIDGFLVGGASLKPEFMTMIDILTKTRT

Compound | kinact/KI [1] [M⁻¹ s⁻¹] | CC50 at 48 h [2] [µM] | Cell viability decrease, HT29 (HT29 cells; [5]) | Selectivity index (SI), CC50 HT29 / IC50 trophozoites (HT29 cells) | Decrease of maximum intrinsic fluorescence intensity of TPI [3] [%] | Maximum intrinsic fluorescence intensity of TPI [3] [a.u.] | CC50 at 48 h (in vitro) [µM] | selectivity ratio at 48 h (in vitro) | Cell viability decrease, Caco-2 (Caco-2 cells; [5]) | Tm of TPI enzyme incubated with compound [4] [°C] | CC50 (HT29 cells; XTT, 48 h) [µM] | CC50 (Caco-2 cells; XTT, 48 h) [µM] | viability at 48 h, 500 µM [2] [%] | Cell viability decrease, HT29 (HT29 cells; 150 µM) | viability at 48 h, 500 µM (in vitro) [%] | Cell viability decrease, Caco-2 (Caco-2 cells; 150 µM) | Loss in thermal stability of TPI ([4]; versus TPI free of treatment) [°C]
COc1c(C)cnc(C[S+]([O-])c2nc3ccccc3[nH]2)c1C (stereo not drawn) [H-BZM2, 2-[(4-methoxy-3,5-dimethylpyridin-2-yl)methanesulfinyl]-1H-benzimidazole] | 2.3 | 1910 | approximately 20% | 53 | 75 | 40.1 | 3180 | 88 | approximately 20% | 59.9 |  |  |  |  |  |  | 
Cc1c(OCC(F)(F)F)ccnc1C[S+]([O-])c1nc2ccccc2[nH]1 (stereo not drawn) [Lansoprazole, 2-{[3-methyl-4-(2,2,2-trifluoroethoxy)pyridin-2-yl]methanesulfinyl}-1H-benzimidazole, reference compound] | 1.78 |  | approximately 20% | 12 | 25 | 123 |  | 59 | approximately 20% | 60.2 | 548 | 2640 |  |  |  |  | 
O=[N+]([O-])c1ccc2nc([S+]([O-])Cc3ccccn3)[nH]c2c1 (stereo not drawn) [O2N-BZM7, 5-nitro-2-[(pyridin-2-yl)methanesulfinyl]-1H-benzimidazole] | 3.2 | 519 |  | 37 | 33 | 107 | 640 | 45 |  | 57.5 |  |  | ~50 | around 20% | ~50 | around 20% | 3
Cc1c(OCC(F)(F)F)ccnc1C[S+]([O-])c1nc2ccc([N+](=O)[O-])cc2[nH]1 (stereo not drawn) [O2N-BZM9, 2-{[3-methyl-4-(2,2,2-trifluoroethoxy)pyridin-2-yl]methanesulfinyl}-5-nitro-1H-benzimidazole] | 2.8 | 622 |  | 36 | 55 | 72.6 | 663 | 39 |  | 58.4 |  |  | ~50 | around 20% | ~50 | around 20% | 
